Values of other authors, collected in publication PMC9762682, “Tocotrienols: Exciting Biological and Pharmacological Properties of Tocotrienols and Naturally Occurring Compounds, Part II” (Annals of clinical case reports, 2022).
Where two headings read alike, the source gives them in different places. Marks after values point to notes of the source that are not given here.

Assays:
[1] = design: method as in ref 16 = [16]; PMID 27493840; doi:10.4172/2155-9880.1000434; 16. Qureshi AA , Khan DA , Silswal N , Saleem S , Qureshi N . Evaluation of pharmacokinetics and bioavailability of higher doses of δ-tocotrienol in healthy fed humans . J Clin Exp Cardiol . 2016; 7
[2] = design: method as in ref 14 = [14]; PMID 27493840; doi:10.4172/2155-9880.1000434; 14. Qureshi AA , Khan DA , Saleem S , Silswal N , Trias AM , Tan B , Pharmacokinetics and bioavailability of Annatto δ-tocotrienol in healthy fed subjects . J Clin Exp Cardiol . 2015; 6 : 11 . 10.417; conditions: for time of appearance in the plasma: after δ-tocotrienol administration to well-fed subjects; for Elimination of Half-life time (t1/2) / Elimination rate constant (ke) / Plasma Peak Concentration (Cmax) / Time to achieve plasma peak (Tmax): healthy fed subjects
[3] = 0 Hr., single dose 750 mg δ-tocotrienol
[4] = 0 Hr., single dose 1000 mg δ-tocotrienol
[5] = 1 hr., single dose 750 mg δ-tocotrienol
[6] = 1 hr., single dose 1000 mg δ-tocotrienol
[7] = 2 hr., single dose 750 mg δ-tocotrienol
[8] = 2 hr., single dose 1000 mg δ-tocotrienol
[9] = 4 hr., single dose 750 mg δ-tocotrienol
[10] = 4 hr., single dose 1000 mg δ-tocotrienol
[11] = 6 hr., single dose 750 mg δ-tocotrienol
[12] = 6 hr., single dose 1000 mg δ-tocotrienol
[13] = 8 hr., single dose 750 mg δ-tocotrienol
[14] = 8 hr., single dose 1000 mg δ-tocotrienol
[15] = single dose 750 mg δ-tocotrienol
[16] = single dose 1000 mg δ-tocotrienol
[17] = plasma tocol after single 125 mg δ-tocotrienol dose
[18] = plasma tocol after single 250 mg δ-tocotrienol dose
[19] = plasma tocol after single 500 mg δ-tocotrienol dose
[20] = plasma tocol after single dose 750 mg δ-tocotrienol
[21] = plasma tocol after single dose 1000 mg δ-tocotrienol

plasma tocol level [1, 3]	plasma tocol level [1, 4]	plasma tocol level [1, 5]	plasma tocol level [1, 6]	plasma tocol level [1, 7]	plasma tocol level [1, 8]	plasma tocol level [1, 9]	plasma tocol level [1, 10]	plasma tocol level [1, 11]	plasma tocol level [1, 12]	plasma tocol level [1, 13]	plasma tocol level [1, 14]	Total tocols (sum of 0-8 h) [1, 15]	Total tocols (sum of 0-8 h) [1, 16]	time of appearance in the plasma [2]	Elimination of Half-life time (t1/2) [2, 17]	Elimination rate constant (ke) [2, 17]	Plasma Peak Concentration (Cmax) [2, 17]	Time to achieve plasma peak (Tmax) [2, 17]	Elimination rate constant (ke) [2, 18]	SMILES	other results
542 ± 11 ng/mL	639 ± 38 ng/mL	525 ± 54 ng/mL	763 ± 69 ng/mL	599 ± 14 ng/mL	1025 ± 58 ng/mL	704 ± 29 ng/mL	1525 ± 32 ng/mL	621 ± 28 ng/mL	717 ± 56 ng/mL	278 ± 16 ng/mL	516 ± 51 ng/mL	3269 ng/mL	5185 ng/mL	> 2 h	1.82 ± 0.23 h	1.247 ± 0.073^a h-1	956.09 ± 70.06^a ng/mL	5.18 ± 1.17 h	0.489 ± 0.063^b h-1	Cc1cc(O)c(C)c2c1O[C@](C)(CCC[C@H](C)CCC[C@H](C)CCCC(C)C)CC2 [β-Tocopherol]	Elimination of Half-life time (t1/2) [2, 18]: 3.97 ± 0.66^a h; Plasma Peak Concentration (Cmax) [2, 18]: 949.91 ± 126.37^a ng/mL; Time to achieve plasma peak (Tmax) [2, 18]: 3.09 ± 0.30 h; Elimination of Half-life time (t1/2) [2, 19]: 3.27 ± 0.61^a h; Elimination rate constant (ke) [2, 19]: 0.275 ± 0.023^c h-1; Plasma Peak Concentration (Cmax) [2, 19]: 1045.09 ± 147.81^a ng/mL; Time to achieve plasma peak (Tmax) [2, 19]: 3.09 ± 0.32 h
1145 ± 61 ng/mL	1220 ± 93 ng/mL	1565 ± 62 ng/mL	1516 ± 21 ng/mL	1568 ± 77 ng/mL	1830 ± 91 ng/mL	1885 ± 91 ng/mL	1937 ± 72 ng/mL	1538 ± 22 ng/mL	1315 ± 48 ng/mL	137 ± 102 ng/mL	519 ± 20 ng/mL	7838 ng/mL	8337 ng/mL	> 2 h	3.92 ± 0.86^a h	0.542 ± 0.062^a h-1	979.00 ± 79.45^a ng/mL	4.00 h	0.404 ± 0.032^b h-1	CC(C)=CCC/C(C)=C/CC/C(C)=C/CC[C@]1(C)CCc2c(C)c(O)cc(C)c2O1 [β-Tocotrienol]	Area Under the Curve-t0 - t8 (AUC0-8) [1, 20]: 11473.96 ± 316.15^c ng/ml; Area Under the Curve-t0 - ∞ (AUC0-∞) [1, 20]: 11709.23 ± 459.66^c ng/ml; Elimination of Half-life time (t1/2) [1, 20]: 1.02 ± 0.34^c h; Elimination rate constant (ke) [1, 20]: 0.681 ± 0.103^b h-1; Peak Plasma Concentration (Cmax) [1, 20]: 1885.20 ± 90.95^c ng/ml; Time to achieve plasma peak (Tmax) [1, 20]: 4.00 ^a h; Elimination of Half-life time (t1/2) [1, 21]: 2.11 ± 0.03^b h; Elimination rate constant (ke) [1, 21]: 0.327 ± 0.167^a h-1; Peak Plasma Concentration (Cmax) [1, 21]: 1948.13 ± 66.43^c ng/ml; Time to achieve plasma peak (Tmax) [1, 21]: 3.33 ± 1.16^a h; Elimination of Half-life time (t1/2) [2, 18]: 3.90 ± 0.79^a h; Plasma Peak Concentration (Cmax) [2, 18]: 1083.73 ± 82.26^b ng/mL; Elimination of Half-life time (t1/2) [2, 19]: 4.39 ± 0.63^a h; Elimination rate constant (ke) [2, 19]: 0.192 ± 0.014^c h-1; Plasma Peak Concentration (Cmax) [2, 19]: 1279.00 ± 116.44^c ng/mL; Time to achieve plasma peak (Tmax) [2, 19]: 3.00 h
319 ± 30 ng/mL	330 ± 34 ng/mL	404 ± 44 ng/mL	412 ± 17 ng/mL	433 ± 26 ng/mL	457 ± 33 ng/mL	547 ± 12 ng/mL	589 ± 39 ng/mL	273 ± 67 ng/mL	241 ± 28 ng/mL	212 ± 16 ng/mL	183 ± 14 ng/mL	2188 ng/mL	2212 ng/mL	> 2 h	2.45 ± 0.37^a h	0.184 ± 0.121^a h-1	507.64 ± 24.68^a ng/mL	5.46 ± 0.93 h	0.146 ± 0.013^b h-1	Cc1c(O)cc2c(c1C)O[C@](C)(CCC[C@H](C)CCC[C@H](C)CCCC(C)C)CC2 [γ-Tocopherol]	Total tocols (sum of 0-8 h) ([1]; single dose 750 mg δ-tocotrienol, listed as γ-tocopherol): 5544 ng/mL; Elimination of Half-life time (t1/2) [2, 18]: 5.17 ± 1.06^b h; Plasma Peak Concentration (Cmax) [2, 18]: 643.36 ± 37.26^b ng/mL; Time to achieve plasma peak (Tmax) [2, 18]: 3.00 h; Elimination of Half-life time (t1/2) [2, 19]: 4.99 ± 0.88^b h; Elimination rate constant (ke) [2, 19]: 0.126 ± 0.026^a h-1; Plasma Peak Concentration (Cmax) [2, 19]: 605.64 ± 48.17^b ng/mL; Time to achieve plasma peak (Tmax) [2, 19]: 2.82 ± 0.41 h
894 ± 69 ng/mL	888 ± 22 ng/mL	949 ± 11 ng/mL	986 ± 18 ng/mL	1195 ± 69 ng/mL	1266 ± 25 ng/mL	1348 ± 93 ng/mL	1473 ± 71 ng/mL	726 ± 51 ng/mL	765 ± 44 ng/mL	432 ± 45 ng/mL	500 ± 25 ng/mL	5544 ng/mL	5878 ng/mL	> 2 h	3.25 ± 0.79^a h	0.118 ± 0.032^a h-1	341.18 ± 62.19^a ng/mL	6.00 h	0.076 ± 0.008^b h-1	Cc1cc(O)cc2c1O[C@](C)(CCC[C@H](C)CCC[C@H](C)CCCC(C)C)CC2 [δ-Tocopherol]	Total tocols (sum of 0-8 h) ([1]; single dose 750 mg δ-tocotrienol, listed as δ-tocopherol): 13117 ng/mL; Elimination of Half-life time (t1/2) [2, 18]: 5.22 ± 0.62^b h; Plasma Peak Concentration (Cmax) [2, 18]: 756.27 ± 72.70^b ng/mL; Time to achieve plasma peak (Tmax) [2, 18]: 4.18 ± 0.60 h; Elimination of Half-life time (t1/2) [2, 19]: 3.58 ± 0.67^a h; Elimination rate constant (ke) [2, 19]: 0.183 ± 0.027^c h-1; Plasma Peak Concentration (Cmax) [2, 19]: 1027.73 ± 71.93^c ng/mL; Time to achieve plasma peak (Tmax) [2, 19]: 3.00 h

SMILES	plasma tocol level [1, 3]	plasma tocol level [1, 4]	plasma tocol level [1, 5]	plasma tocol level [1, 6]	plasma tocol level [1, 7]	plasma tocol level [1, 8]	plasma tocol level [1, 9]	plasma tocol level [1, 10]	plasma tocol level [1, 11]	plasma tocol level [1, 12]	plasma tocol level [1, 13]	plasma tocol level [1, 14]	Total tocols (sum of 0-8 h) [1, 15]	Total tocols (sum of 0-8 h) [1, 16]	time of appearance in the plasma [2]	Elimination of Half-life time (t1/2) [2, 17]	Elimination rate constant (ke) [2, 17]	Plasma Peak Concentration (Cmax) [2, 17]	Time to achieve plasma peak (Tmax) [2, 17]	Elimination rate constant (ke) [2, 18]	other results
CC(C)=CCC/C(C)=C/CC/C(C)=C/CC[C@]1(C)CCc2cc(O)c(C)c(C)c2O1 [γ-Tocotrienol]	795 ± 19 ng/mL	843 ± 13 ng/mL	1035 ± 10 ng/mL	1065 ± 7 ng/mL	1183 ± 16 ng/mL	1251 ± 32 ng/mL	1352 ± 23 ng/mL	1387 ± 10 ng/mL	361 ± 74 ng/mL	484 ± 17 ng/mL	329 ± 17 ng/mL	374 ± 27 ng/mL	5055 ng/mL	5404 ng/mL	> 2 h	3.82 ± 0.99^a h	0.113 ± 0.026^a h-1	281.34 ± 21.22^a ng/mL	3.00 h	0.133 ± 0.037^a h-1	Area Under the Curve-t0 - ∞ (AUC0-∞) [1, 20]: 7895.14 ± 73.43^b ng/ml; Elimination of Half-life time (t1/2) [1, 20]: 1.96 ± 0.06^b h; Elimination rate constant (ke) [1, 20]: 0.353 ± 0.125^a h-1; Peak Plasma Concentration (Cmax) [1, 20]: 1352.41 ± 28.14^b ng/ml; Time to achieve plasma peak (Tmax) [1, 20]: 4.00^a h; Area Under the Curve-t0 - ∞ (AUC0-∞) [1, 21]: 8626.41 ± 277.17^b ng/ml; Elimination of Half-life time (t1/2) [1, 21]: 2.12 ± 0.14^b h; Elimination rate constant (ke) [1, 21]: 0.328 ± 0.286^a h-1; Time to achieve plasma peak (Tmax) [1, 21]: 4.00^a h; Time to achieve plasma peak (Tmax) [2, 18]: 3.00 h; Elimination of Half-life time (t1/2) [2, 19]: 2.25 ± 0.32^c h; Elimination rate constant (ke) [2, 19]: 0.097 ± 0.021^b h-1; Plasma Peak Concentration (Cmax) [2, 19]: 1224.64 ± 61.28^c ng/mL; Time to achieve plasma peak (Tmax) [2, 19]: 3.55 ± 0.52 h
